This passage reports TGI and GI50 results from PubChem BioAssay (NCI).

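Following 48 hours of exposure in 96-well plates, responses at five concentrations were used to interpolate endpoints linearly. GI50 marks 50% less growth. TGI is the concentration that stops growth completely.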

One assay has as its system 786-0 renal. The experiment in a line: inhibition of tumour cell growth, NCI panel, 48 h.
`CC1(c2ccccc2)CC(c2ccccc2)=NO1` (configuration not stated) gave a TGI greater than 100 µM.
`COc1cccc(/C=C2\CCC(C)(CN(C)C)C2=O)c1` (configuration not stated) showed a TGI greater than 100 µM.
Consider `CCN(CC)CCNC(=O)c1cn2ncnc(Oc3ccc(NC(=O)Nc4ccc(Cl)c(C(F)(F)F)c4)c(F)c3)c2c1C`, for which the GI50 is 1.95 µM and the TGI is 3.69 µM.
In the case of `Cl[Si]1(Cl)Oc2ccccc2O[Si](Cl)(Cl)Oc2ccccc2O1`, the TGI was 21.5 µM.
On the same count and under the same terms, with `C=CCC1[C@@H](C(C)(C)C(C(C)=O)C(=O)C(=O)OC)OC(C(C)(C)C)N1C(=O)OC` (some centres not stated) the figure was greater than 100 µM.
On the same count and under the same terms, as for `CCOC(=O)C(=O)Nc1ccccc1C(F)(F)F`, the figure is greater than 100 µM; as for `CCOC(=O)/C(=C/c1cccc(OC)c1)N(CC)CC`, greater than 100 µM; as for `C=CCOC(=O)CC[N+]1=CCC(c2ccccc2)(c2ccccc2)O1`, greater than 100 µM.
In turn, `Cc1c(C(=O)CSc2nc3ccccc3c(=O)n2-c2ccccc2)c(=O)n(-c2ccccc2)n1C` displayed a TGI of 38.9 µM.
With `c1ccc(Cn2cnc3ccc(-c4nc(-c5ccc6c(c5)ncn6C5CCCCC5)cn5ccnc45)cc32)cc1`, the GI50 was 0.799 µM and the TGI was greater than 100 µM.
Take `C#CCC(N)(CO)C(=O)O` (configuration not stated): the TGI is greater than 100 µM.
Same read-out and setting: with `COc1cc2cnc3c4ccccc4ccc3c2cc1OC` the figure was greater than 100 µM.
Turning to `O=C(c1ccc2ccccc2c1)c1c(C(F)(F)F)n([O-])c2ccc(Cl)cc2[n+]1=O`, the GI50 was 1.64 µM and the TGI turned out to be 3.09 µM.
The molecule `O=c1ncccn1C1C=C(CO)C(O)C1O` (configuration not stated) gave a TGI greater than 50 µM.
Still for that read-out and setting: as for `CCN(CC)CC(=O)N1CCc2c([nH]c3ccccc23)C1c1cccnc1` (configuration not stated), the figure is greater than 100 µM.
`CCOC1Oc2ccccc2-c2oc(=O)c(Sc3ccc(C)cc3)cc21` (configuration not stated): the GI50 is 36.3 µM and the TGI is greater than 100 µM.
Taken in the same sequence, the figures for `CCSc1nc(N)c2cn[nH]c2n1` were 40.2 µM and greater than 100 µM.
`N=S(c1ccccc1)c1ccccc1[N+](=O)[O-]` (configuration not stated) came in with a TGI of 30.3 µM.
Same read-out and setting: with `CC1(Cc2ccccc2)NC(=S)NC1=O` (configuration not stated) the figure was greater than 100 µM; with `Cc1ccc(S(=O)(=O)N/N=C(\c2nc3ccc([N+](=O)[O-])cc3[nH]c2=O)C(O)c2ccccc2Cl)cc1` (configuration not stated), greater than 100 µM.
Take `O=c1c2c3c(sc2n2c(-c4cc(-c5ccccc5)nn4-c4ccccc4)nnc2n1Cc1ccccc1)CCCC3`: the GI50 was greater than 100 µM and the TGI is greater than 100 µM.
In the case of `C[C@H]1[C@H](C)CC[C@]2(C(=O)NCCNCCN)CC[C@]3(C)C(=CC[C@@H]4[C@@]5(C)CCC(=O)C(C)(C)[C@@H]5CC[C@]43C)[C@H]12`, the GI50 is 1.74 µM and the TGI is 3.18 µM.
The matching figures for `COc1ccc(CC(C)C(C)Cc2ccc(OC)c(OC)c2)cc1OC` (configuration not stated): 804 µM and greater than 1400 µM.
In turn, `O=C1C2=C(c3ccccc31)C(c1ccccc1Cl)N1C(=O)CCSC1=N2` (configuration not stated) gave a TGI greater than 100 µM.
Regarding `Cn1c2ccccc2c2c(=O)c3ccccc3[nH]c21`, the GI50 is 33.7 µM and the TGI was greater than 100 µM.

The subject of a further assay is CCRF-CEM leukemia. In words: inhibition of tumour cell growth, NCI panel, 48 h.
In the case of `CC1(c2ccccc2)CC(c2ccccc2)=NO1` (configuration not stated), the TGI is greater than 100 µM.
On to `CCN(CC)CCNC(=O)c1cn2ncnc(Oc3ccc(NC(=O)Nc4ccc(Cl)c(C(F)(F)F)c4)c(F)c3)c2c1C`, for which the GI50 is 1.41 µM and the TGI was 4.29 µM.
The molecule `Cl[Si]1(Cl)Oc2ccccc2O[Si](Cl)(Cl)Oc2ccccc2O1` displayed a TGI of 10.5 µM.
On the same count and under the same terms, as for `C=CCC1[C@@H](C(C)(C)C(C(C)=O)C(=O)C(=O)OC)OC(C(C)(C)C)N1C(=O)OC` (some centres not stated), the figure is greater than 100 µM.
On the same count and under the same terms, with `CCOC(=O)/C(=C/c1cccc(OC)c1)N(CC)CC` the figure was greater than 100 µM; with `Cc1c(C(=O)CSc2nc3ccccc3c(=O)n2-c2ccccc2)c(=O)n(-c2ccccc2)n1C`, greater than 100 µM.
On to `c1ccc(Cn2cnc3ccc(-c4nc(-c5ccc6c(c5)ncn6C5CCCCC5)cn5ccnc45)cc32)cc1`, for which the GI50 was 2.18 µM and the TGI was greater than 100 µM.
Consider `COc1cc2cnc3c4ccccc4ccc3c2cc1OC`, for which the TGI is greater than 100 µM.
The same measure, in the same setting: as for `O=c1ncccn1C1C=C(CO)C(O)C1O` (configuration not stated), the figure is greater than 50 µM; as for `CCN(CC)CC(=O)N1CCc2c([nH]c3ccccc23)C1c1cccnc1` (configuration not stated), greater than 100 µM.
Regarding `CCOC1Oc2ccccc2-c2oc(=O)c(Sc3ccc(C)cc3)cc21` (configuration not stated), the GI50 was 14.5 µM and the TGI was found to be 50.2 µM.
`N=S(c1ccccc1)c1ccccc1[N+](=O)[O-]` (configuration not stated): the TGI was 43.4 µM.
As to `Cc1ccc(S(=O)(=O)N/N=C(\c2nc3ccc([N+](=O)[O-])cc3[nH]c2=O)C(O)c2ccccc2Cl)cc1` (configuration not stated), the TGI is greater than 100 µM.
The same measure, in the same setting: with `O=C1C2=C(c3ccccc31)C(c1ccccc1Cl)N1C(=O)CCSC1=N2` (configuration not stated) the figure was greater than 100 µM.

For the next assay, the system named is RXF 393 renal. The experiment in a line: inhibition of tumour cell growth, NCI panel, 48 h.
Molecule `COc1cccc(/C=C2\CCC(C)(CN(C)C)C2=O)c1` (configuration not stated) gave a TGI greater than 100 µM.
With `CCN(CC)CCNC(=O)c1cn2ncnc(Oc3ccc(NC(=O)Nc4ccc(Cl)c(C(F)(F)F)c4)c(F)c3)c2c1C`, the GI50 was 1.8 µM and the TGI stood at 3.35 µM.
With `C=CCC1[C@@H](C(C)(C)C(C(C)=O)C(=O)C(=O)OC)OC(C(C)(C)C)N1C(=O)OC` (some centres not stated), the TGI is greater than 100 µM.
The molecule `CCOC(=O)C(=O)Nc1ccccc1C(F)(F)F` displayed a TGI greater than 100 µM.
The same measure, in the same setting: as for `C=CCOC(=O)CC[N+]1=CCC(c2ccccc2)(c2ccccc2)O1`, the figure is greater than 100 µM.
In the case of `O=C(c1ccc2ccccc2c1)c1c(C(F)(F)F)n([O-])c2ccc(Cl)cc2[n+]1=O`, the GI50 is 0.425 µM and the TGI was 1.4 µM.
For the molecule `CCSc1nc(N)c2cn[nH]c2n1`, the GI50 is 13.3 µM and the TGI is 35.5 µM.
In turn, `CC1(Cc2ccccc2)NC(=S)NC1=O` (configuration not stated) displayed a TGI greater than 100 µM.
With `COc1ccc(CC(C)C(C)Cc2ccc(OC)c(OC)c2)cc1OC` (configuration not stated), the GI50 was 255 µM and the TGI is 950 µM.
Turning to `Cn1c2ccccc2c2c(=O)c3ccccc3[nH]c21`, the GI50 is 54 µM and the TGI was greater than 100 µM.

The next assay has as its system SK-MEL-5 melanoma. The experiment in a line: inhibition of tumour cell growth, NCI panel, 48 h.
`CC1(c2ccccc2)CC(c2ccccc2)=NO1` (configuration not stated) showed a TGI greater than 100 µM.
